Data published in patent publication US20040024048A1, “Medicaments for treating dementia” (priority 2000, published 2004).
Read-outs that look alike come from different tables or passages of the source.

Key:
aged rats = conditions: high dose, cited from earlier work
[1] = tested on: patients with HIV dementia; conditions: cited from earlier work
[2] = tested on: patients with clinical manifestations of dementing deficits; experiment: mini-mental state examination (MMSE) in dementia patients; type: in vivo, human
Source text: The mini-mental state examination test was published by Marshall Folstein in 1975 and was originally intended as a test to differentiate cognitive functions (Folstein et al., 1975). Because the test is short, it is now used as screening test in studies for establishing inclusion/exclusion criteria. The test covers orientation, attention, short- and medium-term memory, word-finding, reading, writing, and in addition a command to perform an action must be obeyed. The tasks in the test are designed so that they can normally be solved without difficulty by people without cognitive impairment. The maximum score achievable is 30, and a score of less than 24 indicates a dementing disorder. The following levels are generally differentiated (Zec et al., 1992).
(§1) Patients with clinical manifestations of dementing deficits and suspected brain damage based on Alzheimer's dementia or vascular dementia or a similar suspected diagnosis were treated with medicines to improve the symptomatic cognitive deficits (nootropics). Since all the active ingredients currently available in the dementia sector provide only marginal improvements, it was justified, despite the disappointing first study, to administer α-lipoic acid in high dose to patients on the basis of this basic therapy. The effect of the therapy was assessed using standardized clinical dementia assessment scales which are usual now and which are distinguished by high reliability. This comprises the mini-mental state examination (MMSE) or the Alzheimer's disease assessment scale (ADAS). The advantage of these clinical instruments is that the severity of the dementia can be established reliably, irrespective of the organic cerebral basis, which is usually not unambiguous, of the clinical picture of dementia.

[3] = tested on: patients with clinical manifestations of dementing deficits; experiment: Global Deterioration Scale (GDS) in dementia patients; type: in vivo, human; conditions: GDS 4/5 at start
Source text: Standardized methods are developed for routine dementia screening, e.g. the mini-mental state examination (MMSE) or the Alzheimer's Disease Assessment Scale (ADAS). Further methods would be: GDS: Global Deterioriation Scale (Reisberg et al., 1982), FAST: Functional Assessment Staging (Reisberg, 1988).

[4] = tested on: patients with clinical manifestations of dementing deficits; experiment: Alzheimer's disease assessment scale (ADAS / ADAS-Cog) in dementia patients; type: in vivo, human
Source text: A further test for establishing the neuropsychological status of a dementia patient is the “Alzheimer's Disease Assessment Scale-Cognitive Subscale (ADAS-Cog)” (Rosen et al., 1984). The Alzheimer Disease Assessment Scale was invented by W. G. Rosen, R. C. Mohs, 1988, Rosen and K. L. Davis, 1984, and the German version was produced by R. Ihl and G. Weyer, Beltz Test 1993. The ADAS was not originally intended to be a diagnostic instrument, but separates dementing people from healthy control subjects of the same age very well. The following criteria can be distinguished in the ADAS: cognitive area, noncogn. area, memory, orientation/praxis, motor function, depression, psychotic symptoms, concentration/cooperation, speech. In the version used here, speech is included in the cognitive area, and thus a max. minus score of 70 is possible. It was possible to show for people with Alzheimer-type dementia that the complete scale increases by 5 to 7 points on average over the course of 12 months, and by 14 points on average over the course of 24 months. The items in the cognitive part are most sensitive in this regard.
as §1

[5] = tested on: patients with sclerotic dementia and involutional depressions; conditions: 25-50 mg, patent calls findings unconfirmed and misleading; cited from earlier work
aging animals = conditions: cited from earlier work
[6] = patients with HIV dementia, administration of α-lipoic acid
[7] = Patient 1, Alzheimer's dementia, 4 weeks additional 600 mg a-lipoic acid on Aricept
[8] = Patient 2, additional 600 mg lipoic acid over 7 months on Aricept, Remotiv, vitamin E
[9] = Patient 3, additional 600 mg lipoic acid on Aricept and vitamin E
[10] = Patient 4, 600 mg lipoic acid for 8 months on Aricept, aspirin, vitamin E
[11] = Patient 6, 600 mg lipoic acid on basic therapy
[12] = Patient 11, dementia plus parkinsonism, 600 mg lipoic acid 4 months on Aricept and Madopar T
[13] = Patient 8, 600 mg lipoic acid 4 weeks, Aricept 8 weeks
[14] = Patient 2, Alzheimer's dementia, Aricept 5/10 mg/day for 12 months, before lipoic acid
[15] = Patient 3, Alzheimer's dementia, Aricept 5 mg/day 13 months plus 600 mg vitamin E
[16] = Patient 4, Alzheimer's dementia, Aricept 5/10 mg/day 19 months, 300 mg aspirin and 600 mg vitamin E 20 months

O=C(O)CCCCC1CCSS1 (stereo not drawn) [α-lipoic acid, 1,2-dithiolane-3-pentanoic acid]
memory performance (aged rats; aged rats): improvement in memory performance | memory performance (aged rats; young animals): not in young animals | effect on the cognitive function ([1]; patients with HIV dementia, 600 mg α-lipoic acid monotherapy): no effect whatsoever | learning [1, 6]: deterioration in learning | verbal learning ability and memory [1, 6]: declined significantly | MMSE score improvement [2, 7]: 2 | improvement in the MMSE score [2, 8]: 1 point | MMSE score improvement [2, 9]: 1 | improvement in the MMSE score [2, 10]: 2 | MMSE score improvement ([2]; Patient 5, first 3 months of 600 mg lipoic acid on basic therapy): 1 | course of the dementia (MMSE) since lipoic acid [2, 11]: no further deterioration | improvement in the MMSE score ([2]; Patient 7, after two months of 600 mg lipoic acid on Aricept and vitamin E): 1 | MMSE score now ([2]; Patient 8, Alzheimer's dementia, 600 mg lipoic acid 4 weeks, Aricept 8 weeks, score 18 at start of lipoic acid): 20 | improvement in the MMSE score ([2]; Patient 9, Lewy body dementia, 600 mg lipoic acid on Aricept and Madopar): 3 | improvement in the MMSE score ([2]; Patient 10, frontal cerebral atrophy, additional 600 mg lipoic acid on Exelon): 1 | MMSE score course [2, 12]: remained at the same level | MMSE score reached ([2]; Patient 12, frontal cerebral atrophy, 600 mg lipoic acid 4 weeks, Aricept 8 weeks, other drugs, from 16): 18 | GDS reached (improved) ([3]; Patient 3, additional 600 mg lipoic acid): 4 | GDS level reached (improved by one level) ([3]; Patient 5, 600 mg lipoic acid): 4 | GDS reached (improved) ([3]; Patient 6, 600 mg lipoic acid): 4 | ADAS score decrease [4, 7]: 6 | ADAS score reached ([4]; Patient 1, Alzheimer's dementia, after 4 weeks additional 600 mg a-lipoic acid on Aricept): 18 | improvement in the ADAS score [4, 8]: 11 points | ADAS score recovery [4, 9]: 2 | ADAS score went back [4, 10]: 3 points | ADAS score loss [4, 11]: 8 | ADAS course ([4]; Patient 7, 600 mg lipoic acid on Aricept and vitamin E): remains constant | ADAS score decline [4, 13]: 3 | ADAS score reached [4, 13]: 35 error points | ADAS score course [4, 12]: remained at the same level | ADAS score decrease ([4]; Patient 12, frontal cerebral atrophy, 600 mg lipoic acid 4 weeks, Aricept 8 weeks): 5 | ADAS score reached ([4]; Patient 12, frontal cerebral atrophy, 600 mg lipoic acid 4 weeks, Aricept 8 weeks, from 41 points): 36 points | manifestations of dementia [5]: improvement of manifestations of dementia

COc1cc2c(cc1OC)C(=O)C(CC1CCN(Cc3ccccc3)CC1)C2 (centres unmarked) [Aricept, donepezil]
deterioration of cognitive status in the MMSE ([2]; Patient 1, Alzheimer's dementia, Aricept 5/10 mg/day for 4 months, before lipoic acid): 1 point | deterioration in the MMSE score [2, 14]: 7 | MMSE score deterioration [2, 15]: 2 | decrease in the MMSE score [2, 16]: 5 | deterioration in the MMSE score ([2]; Patient 5, Alzheimer's dementia, Aricept 5/10 mg/day 24 months with Accuzide 20, Akatinol, 600 mg vitamin E): 6 | deterioration in the MMSE score ([2]; Patient 6, Alzheimer's dementia, Aricept 5/10 mg/day 13 months with aspirin 100, Rökan, 600 mg vitamin E): 5 | deterioration in the MMSE score ([2]; Patient 7, Alzheimer's dementia, Aricept 5 mg/day 6 months plus 600 mg vitamin E): 6 | MMSE score reached ([2]; Patient 9, Lewy body dementia, Aricept 5 mg 12 months, Madopar T and Madopar Depot, before lipoic acid): 17 | ADAS score reached (deterioration) [4, 14]: 53 | ADAS score increase [4, 15]: 14 | decrease of cognitive ability in the ADAS score [4, 16]: 9

O=C(O)CCCCC1CCSS1 (stereo not drawn) [R(+)-α-lipoic acid]
influence on motor functions (aging animals): beneficial influence

C#CCN(C)[C@H](C)Cc1ccccc1 [deprenyl]
effects on cognitive performance ([1]; demented patients, active control drug in the HIV dementia study): confirmed its known beneficial effects

CCN(C)C(=O)Oc1cccc([C@H](C)N(C)C)c1 [Exelon]
MMSE score decrease ([2]; Patient 10, frontal cerebral atrophy, Exelon 6 mg/day for 9 months): 5
